Assay results: the supplement of paper PMC10307832

Key:
Assay in all cases: relative viability (nuclei count vs DMSO), 5 days (fraction); higher = more cells survive
Dinaciclib = compound: CCc1cnn2c(NCc3ccc[n+]([O-])c3)cc(N3CCCC[C@H]3CCO)nc12 [Dinaciclib]
In short: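 Acceptance criteria were a control CV below 25% and at least one doubling per plate. Lung cancer cell lines in 1536-well plates got five library-drug doses (not always all listed) √10 apart by pinning and were left 5 days with no medium change. Viability divides treated-well nuclei by vehicle-well nuclei and is the median across plates. Nuclei were counted by MetaXpress from 4× Hoechst images.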

Dinaciclib + Navitoclax = compound: CCc1cnn2c(NCc3ccc[n+]([O-])c3)cc(N3CCCC[C@H]3CCO)nc12 [Dinaciclib] + CC1(C)CCC(c2ccc(Cl)cc2)=C(CN2CCN(c3ccc(C(=O)NS(=O)(=O)c4ccc(N[C@H](CCN5CCOCC5)CSc5ccccc5)c(S(=O)(=O)C(F)(F)F)c4)cc3)CC2)C1 [Navitoclax] (partner 0.5 µM)
In short: (§1)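 Nuclei were stained with Hoechst during a one-step fixation (final 0.05% Triton X-100, 1% formaldehyde, 1 ug/ml Hoechst) carried out 5 days after dosing, then counted on 4× images. The cells, lung cancer lines in 1536-well plates, had been dosed by pin tool the day after seeding with one drug alone or a fixed anchor-drug dose plus five library-drug doses (not always all listed) in √10 steps. Relative viability is the nuclei count in treated wells divided by that in vehicle wells, and each value is the median of duplicate plates.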

Dinaciclib + OSI-027 = compound: CCc1cnn2c(NCc3ccc[n+]([O-])c3)cc(N3CCCC[C@H]3CCO)nc12 [Dinaciclib] + COc1cccc2cc(-c3nc([C@H]4CC[C@H](C(=O)O)CC4)n4ncnc(N)c34)[nH]c12 [OSI-027] (partner 0.5 µM)
In short: as §1

Dinaciclib + Pictilisib = compound: CCc1cnn2c(NCc3ccc[n+]([O-])c3)cc(N3CCCC[C@H]3CCO)nc12 [Dinaciclib] + CS(=O)(=O)N1CCN(Cc2cc3nc(-c4cccc5[nH]ncc45)nc(N4CCOCC4)c3s2)CC1 [Pictilisib] (partner 1 µM)
In short: as §1

Dinaciclib + Decitabine = compound: CCc1cnn2c(NCc3ccc[n+]([O-])c3)cc(N3CCCC[C@H]3CCO)nc12 [Dinaciclib] + Nc1ncn([C@H]2C[C@H](O)[C@@H](CO)O2)c(=O)n1 [Decitabine] (partner 2 µM)
In short: as §1

Row | Cell Line | relative viability (Dinaciclib; 0.009487 µM) | relative viability (Dinaciclib; 0.03 µM) | relative viability (Dinaciclib; 0.09487 µM) | relative viability (Dinaciclib; 0.3 µM) | relative viability (Dinaciclib + Navitoclax; first compound 0.009487 µM) | relative viability (Dinaciclib + Navitoclax; first compound 0.03 µM) | relative viability (Dinaciclib + Navitoclax; first compound 0.09487 µM) | relative viability (Dinaciclib + Navitoclax; first compound 0.3 µM) | relative viability (Dinaciclib + OSI-027; first compound 0.009487 µM) | relative viability (Dinaciclib + OSI-027; first compound 0.03 µM) | relative viability (Dinaciclib + OSI-027; first compound 0.09487 µM) | relative viability (Dinaciclib + OSI-027; first compound 0.3 µM) | relative viability (Dinaciclib + Pictilisib; first compound 0.009487 µM) | relative viability (Dinaciclib + Pictilisib; first compound 0.03 µM) | relative viability (Dinaciclib + Pictilisib; first compound 0.09487 µM) | relative viability (Dinaciclib + Pictilisib; first compound 0.3 µM) | relative viability (Dinaciclib + Decitabine; first compound 0.009487 µM) | relative viability (Dinaciclib + Decitabine; first compound 0.03 µM) | relative viability (Dinaciclib + Decitabine; first compound 0.09487 µM) | relative viability (Dinaciclib + Decitabine; first compound 0.3 µM)
1 | NCI-H2085 | 1.07 | 0.685 | 0.27 | 0.268 | 1.14 | 0.201 | 0.154 | 0.172 | 0.748 | 0.264 | 0.243 | 0.196 | 0.424 | 0.281 | 0.221 | 0.215 | 0.589 | 0.404 | 0.217 | 0.236
2 | NCI-H2087 | 0.954 | 0.14 | 0.111 | 0.122 | 0.729 | 0.0652 | 0.0695 | 0.0583 | 0.529 | 0.0975 | 0.11 | 0.0895 | 0.643 | 0.143 | 0.165 | 0.151 | 0.189 | 0.0863 | 0.0711 | 0.0804
3 | NCI-H2126 | 1.03 | 0.563 | 0.247 | 0.207 | 0.868 | 0.607 | 0.221 | 0.197 | 0.784 | 0.381 | 0.251 | 0.204 | 0.474 | 0.246 | 0.198 | 0.199 | 0.524 | 0.393 | 0.187 | 0.176
4 | NCI-H2170 | 0.942 | 0.24 | 0.171 | 0.156 | 0.477 | 0.155 | 0.139 | 0.19 | 0.741 | 0.156 | 0.152 | 0.14 | 0.27 | 0.151 | 0.163 | 0.196 | 0.471 | 0.212 | 0.141 | 0.146
5 | NCI-H2347 | 1.01 | 0.538 | 0.257 | 0.214 | 0.779 | 0.167 | 0.143 | 0.143 | 0.437 | 0.204 | 0.144 | 0.151 | 0.455 | 0.292 | 0.327 | 0.179 | 0.673 | 0.383 | 0.212 | 0.232
6 | NCI-H2405 | 0.947 | 0.405 | 0.246 | 0.23 | 0.795 | 0.0802 | 0.0747 | 0.0589 | 0.625 | 0.409 | 0.226 | 0.198 | 0.572 | 0.226 | 0.227 | 0.177 | 0.7 | 0.261 | 0.212 | 0.219
7 | NCI-H3122 | 0.979 | 0.182 | 0.115 | 0.102 | 0.973 | 0.156 | 0.119 | 0.142 | 0.407 | 0.108 | 0.0984 | 0.114 | 0.385 | 0.178 | 0.134 | 0.13 | 0.404 | 0.117 | 0.121 | 0.107
